The target of assay [1] is T1, CCK receptor (brain, cortex) (Cavia porcellus, UniProt H0VZC5).
T1 construct: the cortex was removed and homogenized in 25 mL ice-cold 0.32 M sucrose; from tissue; host or cells: guinea pig brain cortex P2 membrane pellet
T1 sequence (H0VZC5 1-426): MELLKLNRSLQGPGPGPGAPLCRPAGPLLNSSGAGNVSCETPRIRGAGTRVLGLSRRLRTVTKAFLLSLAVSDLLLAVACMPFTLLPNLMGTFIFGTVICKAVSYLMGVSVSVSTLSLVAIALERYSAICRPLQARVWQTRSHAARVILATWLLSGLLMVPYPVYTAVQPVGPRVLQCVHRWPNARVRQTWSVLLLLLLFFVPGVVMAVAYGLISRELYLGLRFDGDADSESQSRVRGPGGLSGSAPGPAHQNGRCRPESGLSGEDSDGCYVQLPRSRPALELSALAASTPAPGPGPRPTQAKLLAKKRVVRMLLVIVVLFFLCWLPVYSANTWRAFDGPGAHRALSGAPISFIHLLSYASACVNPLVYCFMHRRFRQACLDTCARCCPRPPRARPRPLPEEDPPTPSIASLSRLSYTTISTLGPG
Briefly: biochemical. Format: binding, guinea pig. The protocol: CCK-8 sulphated was radiolabelled and the binding was performed according to the description for the pancreas method with minor modifications.
Male Hartley guinea pigs (300-500g) were sacrificed by decapitation and the cortex was removed and homogenized in 25 mL ice-cold 0.32 M sucrose. The homogenates were centrifuged at 1000 g for 10 minutes and the resulting supernatant was recentrifuged at 20,000 g for 20 minutes. The P₂ pellet was resuspended in binding assay buffer (20mM HEPES, 5 mM MgCl₂, 0.25 mg/ml bacitracin, 1 mM EGTA pH 6.5 at 25°C), using a Teflon (trademark) homogenizer (5 strokes at 500 rpm) to give a final concentration of 10 mg original wet weight/1.2 ml buffer. […] All assays were run in duplicate. The reaction mixtures were incubated at 25°C for 2 hours and then the reaction was terminated by rapid filtration (Brandell 24 well cell harvester) on Whatman GF/C filters with 3 x 5 ml washes of cold 100 mM NaCl. The radioactivity on the filters was counted with a LKB gamma counter.
(§1) Drug displacement studies were performed with at least 10 concentrations of compounds of Formula I and the IC₅₀ values were determined by regression analysis IC₅₀ refers to the concentration of the compound required to inhibit 50% of specific binding of ¹²⁵I-CCK-8.

For assay [2], the target named is T2, CCK receptor (pancreas) (Rattus norvegicus, UniProt P30551).
T2 construct: The whole pancreas was dissected free of fat tissue and was homogenized; from tissue; host or cells: rat pancreas membrane homogenate
T2 sequence (P30551 1-444): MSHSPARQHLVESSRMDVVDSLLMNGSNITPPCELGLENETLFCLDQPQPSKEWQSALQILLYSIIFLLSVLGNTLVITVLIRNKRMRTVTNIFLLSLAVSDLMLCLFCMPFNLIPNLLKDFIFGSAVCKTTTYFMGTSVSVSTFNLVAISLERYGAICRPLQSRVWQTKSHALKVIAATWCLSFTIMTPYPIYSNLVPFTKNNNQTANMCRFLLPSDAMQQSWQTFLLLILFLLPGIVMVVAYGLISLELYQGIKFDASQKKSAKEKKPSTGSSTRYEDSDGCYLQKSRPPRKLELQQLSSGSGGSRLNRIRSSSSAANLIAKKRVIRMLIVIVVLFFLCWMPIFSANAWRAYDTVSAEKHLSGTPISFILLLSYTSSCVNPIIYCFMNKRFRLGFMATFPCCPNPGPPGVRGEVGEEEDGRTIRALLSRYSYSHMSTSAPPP
Nature of the assay: biochemical. The assay is classed as binding. The following applies: rat pancreas membranes, 50 pM 125I-CCK-8, 25°C 2 hours. The protocol:
CCK-8 sulphated was radiolabelled with ¹²⁵I-Bolton Hunter reagent (2000 Ci/mmole). Receptor binding was performed according to Chang and Lotti (Proc. Natl. Acad. Sci. 83, 4923-4926, 1986) with minor modifications.
Male Sprague-Dawley rats (150-200g) were sacrificed by decapitation. The whole pancreas was dissected free of fat tissue and was homogenized in 25 volumes of ice-cold 10 mM N-2-hydroxyethyl-piperazine-N′-2-ethane sulphonic acid (HEPES) buffer with 0.1% soya bean trypsin inhibitor (pH 7.4 at 25°C) with a Kinematica Polytron. The homogenates were centrifuged at 47,800 g for 10 min. Pellets were resuspended in 10 volumes of binding assay buffer (20mM (HEPES)), 1mM ethylene glycol-bis-(β-aminoethylether-N,N′-tetraacetic acid) (EGTA), 5mM MgCl₂, 150 mM NaCl, bacitracin 0.25 mg/ml, soya bean trypsin inhibitor 0.1 mg/ml, and bovine serum albumin 2 mg/ml pH 6.5 at 25°C) using a Teflon (trademark) homogenizer, 15 strokes at 500 rpm. The homogenate was further diluted in binding assay buffer to give a final concentration of 0.5 mg original wet weight/1 ml buffer. […] All assays were run in duplicate. The reaction mixtures were incubated at 25°C for 2 hours and the reaction terminated by rapid filtration (Brandell 24 well cell harvester) over Whatman GF/C filters, washing 3 x 4 mls with ice-cold 100 Mm NaCl. The radioactivity on the filters was counted with a LKB gamma counter.
as §1

Assay [3] deals with T3, Gastrin Receptor (Cavia porcellus, UniProt H0VZC5).
T3 sequence (H0VZC5 1-426): T1 sequence (H0VZC5 1-426)
Briefly: Gastrin Receptor Binding in Guinea Pig Gastric Glands, 125I-gastrin. The following applies: 0.1 nM 125I-gastrin, 25°C 30 minutes. Set-up: from tissue; host or cells: isolated guinea pig gastric mucosal glands. The protocol:
Gastrin antagonist activity of compounds of Formula I was determined using the following assay.
Guinea pig gastric mucosal glands were prepared by the procedure of Chang et. al., Science, 230, 177-179 (1985) with slight modifications. […] The tissues were passed twice through a 5 ml syringe to liberate the gastric glands, and then filtered through Nitex (trademark) #202 gauge nylon mesh. The filtered glands were centrifuged at 272 g for 5 minutes and washed twice by resuspension in 25 ml buffer and centrifugation.
The washed guinea pig gastric glands prepared as above were resuspended in 25 ml of standard buffer. For binding studies, to 250 µl of gastric glands, 30 µl of buffer (for total binding) or gastrin (3 µM final concentration, for nonspecific binding) or test compound and 20 µl of ¹²⁵I-gastrin (NEN, 2200 Ci/mmole, 0.1 nM final concentration) were added. All assays were run in triplicate. […] The reaction mixtures, after incubation at 25°C for 30 minutes in a shaking water bath were rapidly filtered (Brandell 24 well cell harvester) over Whatman G/F B filters presoaked in assay buffer and immediately washed further with 3 x 4 ml of 100 mM ice cold NaCl. The radioactivity on the filters was measured using a LKB gamma counter.

Where [4] appears, read: guinea pig cortex membranes, 50 pM 125I-CCK-8, 25°C 2 hours, read-out: IC50 ^125I-CCK Brain.

Like-named read-outs stand apart in the source and are kept apart here.

For orientation: IC50 means the concentration needed to halve the response being measured. `CN1C(=O)C(NC(=O)Nc2ccc3c(c2)C(=O)NS(=O)(=O)C3)N=C(C2CCCCC2)c2ccccc21` (racemic) [Example 44, N-[3(R,S)-5-Cyclohexyl-2,3-dihydro-1-methyl-2-oxo-1H-1,4-benzodiazepin-3-yl] N′-(3,4-dihydro-2,2-dioxo-4-oxo-1H-2,3-benzothiazin-6-yl] urea]: the IC50 was 3.4 nM in assay [1] (setting [4]) and 100 nM in assay [2].
Taken in the same sequence, the figures for `CN1C(=O)C(NC(=O)Nc2cccc(S(=O)(=O)Nc3nccs3)c2)N=C(C2CCCCC2)c2ccccc21` (racemic) [Example 26, N-[3(R,S)-5-Cyclohexyl-2,3-dihydro-1-methyl-2-oxo-1H-1,4-benzodiazepin-3-yl] N′-[3-(thiazol-2-ylaminosulphonyl)phenyl]urea] were 2.3 nM and 60 nM.
For `CN1C(=O)[C@@H](NC(=O)Nc2cccc(C(=O)NS(=O)(=O)c3ccccc3)c2)N=C(C2CCCCC2)c2ccccc21` [Example 35, N-[3(S)-5-Cyclohexyl-2,3-dihydro-1-methyl-2-oxo-1H-1,4-benzodiazepin-3-yl] N′-[3-(phenylsulphonylaminocarbonyl)phenyl] urea], in that order: 50.8 nM and 10.2 nM.
Taken in the same sequence, the figures for `CN1C(=O)C(NC(=O)Nc2cccc(S(=O)(=O)Nc3nncs3)c2)N=C(C2CCCCC2)c2ccccc21` (racemic) [Example 21, N-[3(R,S)-5-Cyclohexyl-2,3-dihydro-1-methyl-2-oxo-1H-1,4-benzodiazepin-3-yl] N′-[3-(1,3,4-thiadiazol-2-ylaminosulphonyl)phenyl]urea] were 1.2 nM and 9.7 nM.
Regarding `CCN1C(=O)C(NC(=O)Nc2cccc(-c3nn[nH]n3)c2)N=C(C2CCCC2)c2ccccc21` (racemic) [Example 5, N-[3(R,S)-5-Cyclopentyl-2,3-dihydro-1-ethyl-2-oxo-1H-1,4-benzodiazepin-3-yl] N′-[3-tetrazol-5-ylphenyl]urea], the IC50 in assay [1] (setting [4]) turned out to be 0.71 nM; in assay [2], 140 nM.
Regarding `CN1C(=O)C(NC(=O)Nc2cccc(C(=O)O)c2)N=C(C2CCCCC2)c2ccccc21` (racemic) [Example 10, N-[3(R,S)-5-Cyclohexyl-2,3-dihydro-1-methyl-2-oxo-1H-1,4-benzodiazepin-3-yl] N′-[3-carboxyphenyl] urea], the IC50 in assay [1] turned out to be 1.4 nM; in assay [2], 3.1 nM.
With `CCCN1C(=O)C(NC(=O)Nc2cccc(-c3nn[nH]n3)c2)N=C(C2CCCC2)c2ccccc21` (racemic) [Example 6, N-[3(R,S)-5-Cyclopentyl-2,3-dihydro-1-propyl-2-oxo-1H-1,4-benzodiazepin-3-,yl] N′-[3-tetrazol-5-ylphenyl] urea], the half-inhibitory concentration (IC50) came out at 0.96 nM in assay [1] (setting [4]) and 1100 nM in assay [2].
Taken in the same sequence, the figures for `CC(C)CN1C(=O)C(NC(=O)Nc2cccc(C(=O)NS(C)(=O)=O)c2)N=C(C2CCCCC2)c2ccccc21` (racemic) [Example 19, N-(3(R,S)-5-Cyclohexyl-2,3-dihydro-1-(2-methylpropyl)-2-oxo-1H-1,4-benzodiazepin-3-yl] N′-[3-(methylsulphonylaminocarbonyl)phenyl] urea] were 12 nM and 570 nM.
Take `CC(C)S(=O)(=O)NC(=O)c1cccc(NC(=O)NC2N=C(C3CCCCC3)c3ccccc3N(C)C2=O)c1` (single isomer, unassigned) [24 (Peak A)]: the IC50 in assay [3] was 0.7 nM; in assay [2], 1180 nM.
For the compound `CCCN1C(=O)C(NC(=O)Nc2cccc(C(=O)NS(=O)(=O)C(C)(C)C)c2)N=C(C2CCCC2)c2ccccc21` (racemic) [Example 37, N-[3(R,S)-5-Cyclopentyl-2,3-dihydro-1-propyl-2-oxo-1H-1,4-benzodiazepin-3-yl] N′-[3-(1,1-dimethylethylsulphonylaminocarbonyl)phenyl] urea], the concentration for half-maximal inhibition (IC50) in assay [1] (setting [4]) came out at 0.19 nM; in assay [2], 960 nM.
In the case of `CCCN1C(=O)C(NC(=O)Nc2cccc(C(=O)NS(=O)(=O)C(C)C)c2)N=C(C2CCCC2)c2ccccc21` (racemic) [Example 36, N-[3(R,S)-5-Cyclopentyl-2,3-dihydro-1-propyl-2-oxo-1H-1,4-benzodiazepin-3-yl] N′-[3-(isopropylsulphonylaminocarbonyl)phenyl] urea], the IC50 came out at 1.2 nM in assay [1] (setting [4]) and 1300 nM in assay [2].
As for `CC(C)CN1C(=O)C(NC(=O)Nc2cccc(-c3nn[nH]n3)c2)N=C(C2CCCC2)c2ccccc21` (racemic) [Example 3, N-[3(R,S)-5-Cyclopentyl-2,3-dihydro-1-(2-methylpropyl)-2-oxo-1H-1,4-benzodiazepin-3-yl] N′-[3-tetrazol-5-ylphenyl]urea], the IC50 in assay [1] (setting [4]) came out at 0.3 nM; in assay [2] it was 800 nM.
For `CN1C(=O)C(NC(=O)Nc2cccc(C(=O)NS(=O)(=O)C(F)(F)F)c2)N=C(C2CCCCC2)c2ccccc21` (racemic) [Example 18, N-[3(R,S)-5-Cyclohexyl-2,3-dihydro-1-methyl-2-oxo-1H-1,4-benzodiazepin-3-,yl] N′-[3-(trifluoromethylsulphonylaminocarbonyl)phenyl] urea], in that order: 0.09 nM and 13.8 nM.
For the compound `Cc1ccc(NC(=O)N[C@@H]2N=C(C3CCCCC3)c3ccccc3N(C)C2=O)cc1C(=O)NS(C)(=O)=O` [Example 34, N-[3(R)-5-Cyclohexyl-2,3-dihydro-1-methyl-2-oxo-1H-1,4-benzodiazepin-3-yl] N′-[4-methyl-3-(methylsulphonylaminocarbonyl)phenyl] urea], the IC50 in assay [1] (setting [4]) is 2.3 nM; in assay [2] it was 1700 nM.

The values above are taken from patent EP0514133A1, “Benzodiazepine derivatives, compositions containing them and their use in therapy” (priority 1991, dated 1992).
